Test system: SARS-CoV-2
Test: microbe, parasite or virus in culture
Conditions: Severe acute respiratory syndrome coronavirus 2, Vero C1008, 48 h

| SMILES | IC50 [µM] | IC50 (read-out: pIC50 (converted)) [µM] |
| --- | --- | --- |
| CC(=O)[C@H]1CC[C@H]2[C@@H]3CCC4=CC(=O)CC[C@]4(C)[C@H]3CC[C@]12C [PROGESTERONE] | > 20 | > 20 |
| CCCN(CCC)C(=O)C(CCC(=O)O)NC(=O)c1ccccc1 (centres undefined) [PROGLUMIDE] | > 20 | > 20 |
| CC(C)NC(=N)NC(=N)Nc1ccc(Cl)cc1 [PROGUANIL] | > 20 | > 20 |
| O=C(O)[C@@H]1CCCN1 [PROLINE] | > 20 | > 20 |
| CC(C)NCC(O)c1ccc2ccccc2c1 (centres undefined) [PRONETALOL] | > 20 | > 20 |
| CCCNCC(O)COc1ccccc1C(=O)CCc1ccccc1 (centres undefined) [PROPAFENONE] | > 20 | > 20 |
| CCCOC(=O)Cc1ccc(OCC(=O)N(CC)CC)c(OC)c1 [PROPANIDID] | > 20 | > 20 |
| CC(C)[N+](C)(CCOC(=O)C1c2ccccc2Oc2ccccc21)C(C)C [PROPANTHELINE] | > 20 | > 20 |
| CCCOc1ccc(C(=O)OCCN(CC)CC)cc1N [PROPARACAINE] | > 20 | > 20 |
| CCCn1cnc2c1c(=O)n(CCCCC(C)=O)c(=O)n2C [PROPENTOFYLLINE] | > 20 | > 20 |
| CC(C)OC(=O)C1(c2ccccc2)CCN(C)CC1 [PROPERIDINE] | > 20 | > 20 |
| CCC(=O)O [PROPIONIC ACID] | > 20 | > 20 |
| CC(C)c1cccc(C(C)C)c1O [PROPOFOL] | > 20 | > 20 |
| CCCOc1cc(N)ccc1C(=O)OCCN(CC)CC [PROPOXYCAINE] | > 20 | > 20 |
| CCC(=O)O[C@](Cc1ccccc1)(c1ccccc1)[C@H](C)CN(C)C [PROPOXYPHENE] | > 20 | > 20 |
| CC(O)CO (centres undefined) [PROPYLENE GLYCOL] | > 20 | > 20 |
| CCCOC(=O)c1ccc(O)cc1 [PROPYLPARABEN] | > 20 | > 20 |
| Cc1c(C(C)C)c(=O)n(-c2ccccc2)n1C [PROPYPHENAZONE] | > 20 | > 20 |
| Cc1ccc2c(-c3ccccc3)nc(=O)n(C(C)C)c2c1 [PROQUAZONE] | > 20 | > 20 |
| CCCc1cc(C(N)=S)ccn1 [PROTIONAMIDE] | > 20 | > 20 |
| COc1ccc2c(c1)Sc1ccc(C(C)C(=O)O)cc1N2C (centres undefined) [PROTIZINIC ACID] | > 20 | > 20 |

| SMILES | IC50 [µM] | IC50 (read-out: pIC50 (converted)) [µM] |
| --- | --- | --- |
| CC(O)Cn1cnc2c1c(=O)n(C)c(=O)n2C (centres undefined) [PROXYPHYLLINE] | > 20 | > 20 |
| c1ccc(C(CCN2CCCCCC2)c2ccccc2)cc1 [PROZAPINE] | > 20 | > 20 |
| Cc1oc(=O)oc1CN1CCN(c2cc3c(cc2F)c(=O)c(C(=O)O)c2n3C(C)S2)CC1 (centres undefined) [PRULIFLOXACIN] | > 20 | > 20 |
| N#Cc1cc(CN2CCC(Nc3ncnc4sc(Cl)cc34)CC2)ccc1F [PRX-08066 FREE BASE] | > 20 | > 20 |
| CN[C@@H](C)[C@@H](O)c1ccccc1 [PSEUDOEPHEDRINE] | > 20 | > 20 |
| COc1cc(/C=C/c2ccc(O)cc2)cc(OC)c1 [PTEROSTILBENE] | > 20 | > 20 |
| C/C=C(\C)C(=O)O[C@@H]1c2c(ccc3ccc(=O)oc23)OC(C)(C)[C@@H]1OC(C)=O [PTERYXIN] | > 20 | > 20 |
| COC(=O)Nc1cccc(C)c1CNc1cccn2c(C)c(C)nc12 [PUMAPRAZOLE] | > 20 | > 20 |
| O=C(N[C@H]1CN2CCC1CC2)c1c[nH]c2ccsc2c1=O [PUMOSETRAG] | > 20 | > 20 |
| NCCCCN [PUTRESCINE] | > 20 | > 20 |
| CCC(C)SSc1ncc[nH]1 (centres undefined) [PX-12] | > 20 | > 20 |
| c1ccc2c(c1)Sc1ccccc1N2CCN1CCCC1 [PYRATHIAZINE] | > 20 | > 20 |
| NC(=O)c1cnccn1 [PYRAZINAMIDE] | > 20 | > 20 |
| NC(=O)c1[nH]nc([C@@H]2O[C@H](CO)[C@@H](O)[C@H]2O)c1O [PYRAZOFURIN] | > 20 | > 20 |
| CC(C)(C)c1ccc(CSc2cnn(C(C)(C)C)c(=O)c2Cl)cc1 [PYRIDABEN] | > 20 | > 20 |
| CN(C)C(=O)Oc1ccc[n+](C)c1 [PYRIDOSTIGMINE] | > 20 | > 20 |
| Cc1ncc(COP(=O)(O)O)c(C=O)c1O [PYRIDOXAL PHOSPHATE ANHYDROUS] | > 20 | > 20 |
| Cc1ncc(CO)c(C=O)c1O [PYRIDOXAL] | > 20 | > 20 |
| Cc1ncc(CO)c(CN)c1O [PYRIDOXAMINE] | > 20 | > 20 |
| Cc1ncc(CO)c(CO)c1O [PYRIDOXINE] | > 20 | > 20 |
| COc1ccc(CN(CCN(C)C)c2ccccn2)cc1 [PYRILAMINE] | > 20 | > 20 |

| SMILES | IC50 [µM] | IC50 (read-out: pIC50 (converted)) [µM] |
| --- | --- | --- |
| CCc1nc(N)nc(N)c1-c1ccc(Cl)cc1 [PYRIMETHAMINE] | > 20 | > 20 |
| [O-][n+]1ccccc1S [PYRITHIONE] | > 20 | > 20 |
| CCC1(CC)C(=O)C=CNC1=O [PYRITHYLDIONE] | > 20 | > 20 |
| Cc1ncc(CSSCc2cnc(C)c(O)c2CO)c(CO)c1O [PYRITINOL] | > 20 | > 20 |
| Oc1cccc(O)c1O [PYROGALLOL] | > 20 | > 20 |
| COc1ccc2nc3cc(Cl)ccc3c(Nc3cc(CN4CCCC4)c(O)c(CN4CCCC4)c3)c2n1 [PYRONARIDINE] | > 20 | > 20 |
| Cc1cccc(C)c1NC(=O)CN1CCCC1 [PYRROCAINE] | > 20 | > 20 |
| CC(=O)OC(Cc1ccccc1)(c1ccccc1)C(C)CN1CCCC1 (centres undefined) [PYRROLIPHENE] | > 20 | > 20 |
| O=[N+]([O-])c1c(Cl)cccc1-c1c[nH]cc1Cl [PYRROLNITRIN] | > 20 | > 20 |
| CC(=O)C(=O)O [PYRUVATE] | > 20 | > 20 |
| C[C@@H]1C(=O)NC2=Nc3cccc(Cl)c3CN21 [QUAZINONE] | > 20 | > 20 |
| COC(=O)c1nc2cc(Cl)c3cccnc3c2o1 [QUAZOLAST] | > 20 | > 20 |
| CO[C@H]1[C@H](O)[C@@H](O)[C@H](O)[C@H](O)[C@H]1O [QUEBRACHITOL] | > 20 | > 20 |
| O=c1c(O)c(-c2ccc(O)c(O)c2)oc2cc(O)cc(O)c12 [QUERCETIN] | > 20 | > 20 |
| OC(c1ccccc1)(c1ccccc1)C1CN2CCC1CC2 (centres undefined) [QUIFENADINE] | > 20 | > 20 |
| CCC1NC(=O)c2cc(S(N)(=O)=O)c(Cl)cc2N1 (centres undefined) [QUINETHAZONE] | > 20 | > 20 |
| O=C(Oc1ccc2c(c1)CCCN2C(=O)C(Cl)Cl)c1ccco1 [QUINFAMIDE] | > 20 | > 20 |
| C=C[C@H]1CN2CC[C@H]1C[C@H]2[C@H](O)c1ccnc2ccc(OC)cc12 [QUININE] | > 20 | > 20 |
| COc1cc(NCCCC(C)N)c2ncccc2c1 (centres undefined) [QUINOCIDE] | > 20 | > 20 |
| c1ccc2ncccc2c1 [QUINOLINE] | > 20 | > 20 |
| O=C(O)c1cccnc1C(=O)O [QUINOLINIC ACID] | > 20 | > 20 |

| SMILES | IC50 [µM] | IC50 (read-out: pIC50 (converted)) [µM] |
| --- | --- | --- |
| CCOP(=S)(Oc1cccc2cccnc12)c1ccccc1 (centres undefined) [QUINTIOFOS] | > 20 | > 20 |
| c1ccc2nc(N3CCNCC3)ccc2c1 [QUIPAZINE] | > 20 | > 20 |
| CN(C)S(=O)(=O)c1ccc2c(c1)N(C1CN3CCC1CC3)c1ccccc1S2 (centres undefined) [QUISULTAZINE] | > 20 | > 20 |
| CC(C)(C)c1cc(NC(=O)Nc2ccc(-c3cn4c(n3)sc3cc(OCCN5CCOCC5)ccc34)cc2)no1 [QUIZARTINIB] | > 20 | > 20 |
| CCOC(=O)[C@H](C)NP(=O)(COCCn1cnc2c(NC3CC3)nc(N)nc21)N[C@@H](C)C(=O)OCC [RABACFOSADINE] | > 20 | > 20 |
| COCCCOc1ccnc(C[S+]([O-])c2nc3ccccc3[nH]2)c1C (centres undefined) [RABEPRAZOLE] | > 20 | > 20 |
| Cc1cnc(NC(=O)Nc2cc(Br)c(C)cc2OC[C@@H]2CNCCO2)cn1 [RABUSERTIB] | > 20 | > 20 |
| CCCCC1OC(=O)c2ccccc21 (stereo not drawn) [RAC-3-N-BUTYLPHTHALIDE] | > 20 | > 20 |
| CC(Oc1ccc(Cl)cc1Cl)C(=O)O (stereo not drawn) [RAC-DICHLORPROP] | > 20 | > 20 |
| CC(=O)SCC(Cc1ccccc1)C(=O)NCC(=O)OCc1ccccc1 (centres undefined) [RACECADOTRIL] | > 20 | > 20 |
| CN1CCC23CCCCC2C1Cc1ccc(O)cc13 (stereo not drawn) [RACEMORPHAN] | > 20 | > 20 |
| CNCC(O)c1ccc(O)c(O)c1 (centres undefined) [RACEPINEPHRINE] | > 20 | > 20 |
| CCN1CCC[C@H]1CNC(=O)c1c(O)c(Cl)cc(Cl)c1OC [RACLOPRIDE] | > 20 | > 20 |
| CC(=O)NC[C@H]1CN(c2ccc(-c3ccc(CNCc4cnn[nH]4)cc3)c(F)c2)C(=O)O1 [RADEZOLID] | > 20 | > 20 |
| Cn1c(Nc2ccc(C(F)(F)F)cc2)nc2cc(Oc3ccnc(-c4ncc(C(F)(F)F)[nH]4)c3)ccc21 [RAF-265] | > 20 | > 20 |
| O=C(Nc1ccc(Oc2ccc(Cl)cc2)c(Cl)c1)c1cc(I)cc(I)c1O [RAFOXANIDE] | > 20 | > 20 |
| C[C@H](NCc1ccc(OCc2ccccc2F)cc1)C(N)=O [RALFINAMIDE] | > 20 | > 20 |
| CC(C)(C)Cn1c(N)nc2ccc(-c3[nH]c(C(C)(C)C)nc3-c3ccc(F)cc3)nc21 [RALIMETINIB] | > 20 | > 20 |
| Cc1cccc(Cl)c1NC(=O)/C=C1\SCC(=O)N1C [RALITOLINE] | > 20 | > 20 |

Source: ChEMBL document CHEMBL4651402, “Screening of ~5500 FDA-approved drugs and clinical candidates for anti-SARS-CoV-2 activity” (2021)
